These molecules were tested on Human venous whole blood (IFN-γ) (assay: Human whole blood IFN-γ assay). Settings: Homo sapiens, 24 h, human whole blood, anti-CD3 plus anti-CD28, 24 hours; read-out: INFg Whole Blood Normalized Agonist EC50.
Format: cell-based
Method: Assay 10: Human Whole Blood IFN-γ Assay
Human venous whole blood (22.5 μL per well), obtained from healthy donors, was pre-treated with compounds for one hour at 37° C. in a humidified 95% air/5% CO2 incubator. The blood was stimulated with 2.5 μL anti-human CD3 and anti-CD28 mAb at a final concentration of 1 μg/mL each for 24 hours at 37° C. IFN-γ in the supernatants was measured using AlphLISA kit (Cat #AL217).
For C[C@@H]1CN(c2cc(=O)n(C)c3ccc(C#N)nc23)CC[C@H]1Oc1ccc(OC(F)(F)F)cc1 (racemic) [Example 79, (+/−) 6-cyano-1-methyl-4-(trans-3-methyl-4-(4-(trifluoromethoxy)phenoxy)piperidin-1-yl)-1,5-naphthyridin-2(1H)-one], the EC50 was 2.2 µM. With C[C@@H]1CN(c2cc(=O)n(C)c3ccc(C#N)nc23)CC[C@H]1Oc1ccc(F)cc1 (single isomer, unassigned) [Example 129] the EC50 was 20 µM. Work on CC[C@@H]1CN(c2cc(=O)n(C)c3ccc(C#N)nc23)CC[C@H]1Oc1ccc(C(C)(C)C)cc1 (racemic) [Example 152, 8-((3R,4R)-4-(4-(tert-butyl)phenoxy)-3-ethylpiperidin-1-yl)-5-methyl-6-oxo-5,6-dihydro-1,5-naphthyridine-2-carbonitrile] yielded an EC50 of 1.5 µM. With C[C@@H]1CN(c2cc(=O)n(C)c3ccc(C#N)nc23)CC[C@H]1Oc1ccc(F)cc1 [Example 128, 8-((3R,4R)-4-(4-fluorophenoxy)-3-methylpiperidin-1-yl)-5-methyl-6-oxo-5,6-dihydro-1,5-naphthyridine-2-carbonitrile] the EC50 was 20 µM. CC[C@@H]1CN(c2cc(=O)n(C)c3ccc(C#N)nc23)CC[C@H]1Oc1cccc(C2CC2)c1 (racemic) [Example 155, 8-((3R,4R)-4-(3-cyclopropylphenoxy)-3-ethylpiperidin-1-yl)-5-methyl-6-oxo-5,6-dihydro-1,5-naphthyridine-2-carbonitrile] showed an EC50 of 20 µM. With CC[C@@H]1CN(c2cc(=O)n(C)c3ccc(C#N)nc23)CC[C@H]1Oc1cccc(C2CC2)c1 [Example 156, 8-((3R,4R)-4-(3-cyclopropylphenoxy)-3-ethylpiperidin-1-yl)-5-methyl-6-oxo-5,6-dihydro-1,5-naphthyridine-2-carbonitrile] the EC50 was 1.8 µM. Molecule C[C@@H]1CN(c2cc(=O)n(C)c3ccc(C#N)nc23)CC[C@H]1Oc1ccc(C2CC2)cc1 (racemic) [Example 111, 8-((3R,4R)-4-(4-cyclopropylphenoxy)-3-methylpiperidin-1-yl)-5-methyl-6-oxo-5,6-dihydro-1,5-naphthyridine-2-carbonitrile] has an EC50 of 3.3 µM. For CC[C@@H]1CN(c2cc(=O)n(C)c3ccc(C#N)nc23)CC[C@H]1Oc1ccc(C(C)(C)CC)cc1 (racemic) [Example 149, 8-((3R,4R)-3-ethyl-4-(4-(tert-pentyl)phenoxy)piperidin-1-yl)-5-methyl-6-oxo-5,6-dihydro-1,5-naphthyridine-2-carbonitrile], the EC50 was 1.4 µM. With C[C@@H]1CN(c2cc(=O)n(C)c3ccc(C#N)nc23)CC[C@H]1Oc1ccc(C(C)(C)C)cc1 (single isomer, unassigned) [Example 90] the EC50 was 5.6 µM. With CC[C@@H]1CN(c2cc(=O)n(C)c3ccc(C#N)nc23)CC[C@H]1Oc1ccc(C(C)C)cc1 (racemic) [Example 143, 8-((3R,4R)-3-ethyl-4-(4-isopropylphenoxy)piperidin-1-yl)-5-methyl-6-oxo-5,6-dihydro-1,5-naphthyridine-2-carbonitrile] the EC50 was 2.2 µM.

Same assay, conditions: Homo sapiens, human whole blood IFN-γ; read-out: INFg Whole Blood
Work on CCCc1cc(O[C@@H]2CCN(c3cc(=O)n(C)c4ccc(C#N)nc34)C[C@H]2CC)ccc1F [Example 195, 8-((3R,4R)-3-ethyl-4-(4-fluoro-3-propylphenoxy)piperidin-1-yl)-5-methyl-6-oxo-5,6-dihydro-1,5-naphthyridine-2-carbonitrile] yielded an EC50 of 0.33 µM. For C[C@@H]1CN(c2cc(=O)n(C)c3ccc(C#N)nc23)CC[C@@H]1Oc1ccc(C(F)(F)F)cc1 (racemic) [Example 186, (+/−) 5-methyl-8-(cis-3-methyl-4-(4-(trifluoromethyl)phenoxy)piperidin-1-yl)-6-oxo-5,6-dihydro-1,5-naphthyridine-2-carbonitrile], the EC50 was 1.6 µM. Work on CC(C)c1ccnc(O[C@H]2CCN(c3cc(=O)n(C)c4ccc(C#N)nc34)C[C@H]2C)c1 [Example 211, 8-((3R,4S)-4-((4-isopropylpyridin-2-yl)oxy)-3-methylpiperidin-1-yl)-5-methyl-6-oxo-5,6-dihydro-1,5-naphthyridine-2-carbonitrile] yielded an EC50 of 3.9 µM. CC(C)Oc1ccc(O[C@@H]2CCN(c3cc(=O)n(C)c4ccc(C#N)nc34)C[C@H]2C)nc1 (mixture of isomers) [Example 199, 8-((3R,4R)-4-((5-isopropoxypyridin-2-yl)oxy)-3-methylpiperidin-1-yl)-5-methyl-6-oxo-5,6-dihydro-1,5-naphthyridine-2-carbonitrile] was tested, and the EC50 was 2.1 µM. C[C@@H]1CN(c2cc(=O)n(C)c3ccc(C#N)nc23)CC[C@@H]1Oc1ccc(C2CC2)cn1 [Example 224, 8-((3R,4S)-4-((5-cyclopropylpyridin-2-yl)oxy)-3-methylpiperidin-1-yl)-5-methyl-6-oxo-5,6-dihydro-1,5-naphthyridine-2-carbonitrile] gave an EC50 of 5.8 µM. In the case of CC(C)c1ccc(O[C@H]2CCN(c3cc(=O)n(C)c4ccc(C#N)nc34)C[C@H]2C)nc1 [Example 205, 8-((3R,4S)-4-((5-isopropylpyridin-2-yl)oxy)-3-methylpiperidin-1-yl)-5-methyl-6-oxo-5,6-dihydro-1,5-naphthyridine-2-carbonitrile], the EC50 is reported as 0.37 µM.

Same assay, conditions: Homo sapiens, read-out: INFg Whole Blood, human whole blood IFN-γ
In the case of CC[C@@H]1CN(c2cc(=O)n(C)c3ccc(C#N)nc23)CC[C@H]1Oc1cccc(C(C)(C)C)c1 [Example 196, 8-((3R,4R)-4-(3-(tert-butyl)phenoxy)-3-ethylpiperidin-1-yl)-5-methyl-6-oxo-5,6-dihydro-1,5-naphthyridine-2-carbonitrile], the EC50 is reported as 0.29 µM. Molecule CC[C@@H]1CN(c2cc(=O)n(C)c3ccc(C#N)nc23)CC[C@@H]1Oc1ccc(OC(C)C)cn1 [Example 202, 8-((3R,4S)-3-ethyl-4-((5-isopropoxypyridin-2-yl)oxy)piperidin-1-yl)-5-methyl-6-oxo-5,6-dihydro-1,5-naphthyridine-2-carbonitrile] has an EC50 of 2 µM.

Same assay, conditions: human whole blood IFN-γ; read-out: INFg Whole Blood
With C[C@@H]1CN(c2cc(=O)n(C)c3ccc(C#N)nc23)CC[C@@H]1Oc1ccc(C(F)(F)F)cn1 (single isomer, unassigned) [Example 227] the EC50 was 4.2 µM. Work on CC(C)c1ccnc(O[C@H]2CCN(c3cc(=O)n(C)c4ccc(C#N)nc34)C[C@H]2C)c1 (single isomer, unassigned) [Example 212] yielded an EC50 of 1.9 µM. CC(C)Oc1ccc(OC2CCN(c3cc(=O)n(C)c4ccc(C#N)nc34)CC2(C)C)nc1 (single isomer, unassigned) [Example 234, 8-(4-((5-isopropoxypyridin-2-yl)oxy)-3,3-dimethylpiperidin-1-yl)-5-methyl-6-oxo-5,6-dihydro-1,5-naphthyridine-2-carbonitrile (rel)] showed an EC50 of 9.3 µM. For CO[C@H]1CN(c2cc(=O)n(C)c3ccc(C#N)nc23)CC[C@@H]1Oc1ccc(OC(C)C)cn1 (racemic) [Example 270, (±)-trans-8-(4-((5-isopropoxypyridin-2-yl)oxy)-3-methoxypiperidin-1-yl)-5-methyl-6-oxo-5,6-dihydro-1,5-naphthyridine-2-carbonitrile], the EC50 was 5.4 µM. For CO[C@H]1CN(c2cc(=O)n(C)c3ccc(C#N)nc23)CC[C@@H]1Oc1ccc(OC(C)C)cn1 (racemic) [Example 269, (±)-trans-8-(4-((5-isopropoxypyridin-2-yl)oxy)-3-methoxypiperidin-1-yl)-5-methyl-6-oxo-5,6-dihydro-1,5-naphthyridine-2-carbonitrile], the EC50 was 1.6 µM. C[C@@H]1CN(c2cc(=O)n(C)c3ccc(C#N)nc23)CC[C@@H]1Oc1ccc(C(F)(F)F)cc1 (single isomer, unassigned) [Example 188, 5-methyl-8-(cis-3-methyl-4-(4-(trifluoromethyl)phenoxy)piperidin-1-yl)-6-oxo-5,6-dihydro-1,5-naphthyridine-2-carbonitrile (rel)] showed an EC50 of 6.4 µM. In the case of CO[C@@H]1CN(c2nc(=O)n(C)c3ccc(C#N)nc23)CC[C@H]1Oc1cccc(C(F)(F)F)c1 (racemic) [Example 277], the EC50 is reported as 4.5 µM. CC(C)Oc1ccc(O[C@H]2CCN(c3cc(=O)n(C)c4ccc(C#N)nc34)C[C@@H]2O)nc1 (racemic) [Example 268, (±)-trans-8-(3-hydroxy-4-((5-isopropoxypyridin-2-yl)oxy)piperidin-1-yl)-5-methyl-6-oxo-5,6-dihydro-1,5-naphthyridine-2-carbonitrile] showed an EC50 of 13 µM.

Same assay, conditions: human whole blood, anti-CD3 plus anti-CD28, 24 hours; read-out: INFg Whole Blood Normalized Agonist EC50
CC[C@@H]1CN(c2cc(=O)n(C)c3ccc(C#N)nc23)CC[C@H]1Oc1cccc(C2CC2)c1 [Example 157, 8-((3R,4R)-4-(3-cyclopropylphenoxy)-3-ethylpiperidin-1-yl)-5-methyl-6-oxo-5,6-dihydro-1,5-naphthyridine-2-carbonitrile] gave an EC50 of 2.8 µM. In the case of CC[C@@H]1CN(c2cc(=O)n(C)c3ccc(C#N)nc23)CC[C@H]1Oc1ccc(C(C)(C)CC)cc1 (single isomer, unassigned) [Example 151], the EC50 is reported as 2.4 µM. Molecule C[C@@H]1CN(c2cc(=O)n(C)c3ccc(C#N)nc23)CC[C@H]1Oc1ccc(OC(F)(F)F)cc1 (single isomer, unassigned) [Example 81, 6-cyano-1-methyl-4-(trans-3-methyl-4-(4-(trifluoromethoxy)phenoxy)piperidin-1-yl)-1,5-naphthyridin-2(1H)-one (rel)] has an EC50 of 2 µM. Molecule CC[C@@H]1CN(c2cc(=O)n(C)c3ccc(C#N)nc23)CC[C@H]1Oc1ccc(C(C)(C)C)cc1 (single isomer, unassigned) [Example 153] has an EC50 of 1.7 µM. With C[C@@H]1CN(c2cc(=O)n(C)c3ccc(C#N)nc23)CC[C@H]1Oc1ccc(C(F)(F)F)cc1 (single isomer, unassigned) [Example 98] the EC50 was 1.2 µM. CC[C@@H]1CN(c2cc(=O)n(C)c3ccc(C#N)nc23)CC[C@H]1Oc1ccc(C(C)C)cc1 (single isomer, unassigned) [Example 145] was tested, and the EC50 was 7.8 µM.
